Read-outs that look alike come from different tables or passages of the source.
Tests used:
[1] = test system: HL-60 TB; assay: Anticancer activity, reduced human cancer cell line panel (NCI method), Leukemia; assay type: cell-based; settings: for LC50 (50% lethal concentration): Leukemia, HL-60 TB, read-out: Log10 LC50 (converted)
Description: (§1) The anticancer activities of aclacinomycin X, 11-hydroxy aclacinomycin X and 11-hydroxy aclacinomycin A were determined by using a reduced human cancer cell line panel(supplier: National Cancer Institute, U.S.A.) in accordance with the method of National Cancer Institute, U.S.A. (Monks, A., et al., J. Natl. Cancer Inst., 83, 757-766(1991)), and the results are shown in Table I.

[2] = test system: K-562; assay: as above; assay type: cell-based
Description: as §1

[3] = test system: A-549; assay: Anticancer activity, reduced human cancer cell line panel (NCI method), Non-Small Cell Lung Cancer; assay type: cell-based
Description: as §1

[4] = test system: EKVX; assay: as above; assay type: cell-based; settings: read-out: Log10 LC50 (converted)
Description: as §1

[5] = test system: HCC-2298; assay: Anticancer activity, reduced human cancer cell line panel (NCI method), Colon Cancer; assay type: cell-based
Description: as §1

[6] = test system: HT29; assay: as above; assay type: cell-based
Description: as §1

[7] = test system: SF-268; assay: Anticancer activity, reduced human cancer cell line panel (NCI method), CNS Cancer; assay type: cell-based; settings: SF-268, read-out: Log10 LC50 (converted)
Description: as §1

[8] = test system: U251; assay: as above; assay type: cell-based
Description: as §1

[9] = test system: MALME-3M; assay: Anticancer activity, reduced human cancer cell line panel (NCI method), Melanoma; assay type: cell-based; settings: read-out: Log10 LC50 (converted)
Description: as §1

[10] = test system: SK-MEL-2; assay: as above; assay type: cell-based; settings: SK-MEL-2, read-out: Log10 LC50 (converted)
Description: as §1

[11] = test system: OVCAR-3; assay: Anticancer activity, reduced human cancer cell line panel (NCI method), Ovarian Cancer; assay type: cell-based; settings: OVCAR-3, read-out: Log10 LC50 (converted)
Description: as §1

[12] = test system: SK-OV-3; assay: as above; assay type: cell-based; settings: SK-OV-3, read-out: Log10 LC50 (converted)
Description: as §1

[13] = test system: 786-0; assay: Anticancer activity, reduced human cancer cell line panel (NCI method), Renal Cancer; assay type: cell-based; settings: 786-0, read-out: Log10 LC50 (converted)
Description: as §1

[14] = test system: UO-31; assay: as above; assay type: cell-based; settings: UO-31, read-out: Log10 LC50 (converted)
Description: as §1

[15] = test system: DU-145; assay: Anticancer activity, reduced human cancer cell line panel (NCI method), Prostate Cancer; assay type: cell-based; settings: DU-145, read-out: Log10 LC50 (converted)
Description: as §1

[16] = test system: PC-3; assay: as above; assay type: cell-based; settings: PC-3, read-out: Log10 LC50 (converted)
Description: as §1

[17] = test system: MCF7; assay: Anticancer activity, reduced human cancer cell line panel (NCI method), Breast Cancer; assay type: cell-based; settings: MCF7, read-out: Log10 LC50 (converted)
Description: as §1

[18] = test system: MDA-N; assay: as above; assay type: cell-based; settings: read-out: Log10 LC50 (converted)
Description: as §1

[19] = test system: human cancer cell lines; assay: Anticancer / growth inhibiting activity against the human cancer cell line panel, overall; assay type: cell-based; settings: for growth inhibiting activities compared with aclacinomycin A: various human cancer cell lines
Description: as §1

[20] = Solubility in organic solvents; settings: methanol (MeOH), chloroform (CHCl3)
[21] = K562, Leukemia, K-562, read-out: Log10 LC50 (converted)
[22] = A549, Non-Small Cell Lung Cancer, A-549, read-out: Log10 LC50 (converted)
[23] = HT-29, Colon Cancer, HT29, read-out: Log10 LC50 (converted)
[24] = U-251, CNS Cancer, U251, read-out: Log10 LC50 (converted)

Structure (SMILES): CC[C@@]1(O)C[C@H](O[C@H]2C[C@H](N(C)C)[C@H](O[C@H]3C[C@H](O)[C@H](O[C@@H]4O[C@@H](C)C(=O)C=C4N)[C@H](C)O3)[C@H](C)O2)c2c(cc3c(c2O)C(=O)c2c(O)cccc2C3=O)[C@H]1C(=O)OC [Aclacinomycin X, aclacinomycin X]
- LC50 (50% lethal concentration) [1]: 30.9 µM
- CC50 [2, 21]: 60.3 µM
- LC50 [3, 22]: 4.07 µM
- CC50 ([4]; Non-Small Cell Lung Cancer): 18.6 µM
- CC50 ([5]; Colon Cancer, HCC-2298, read-out: Log10 LC50 (converted)): 0.191 µM
- CC50 [6, 23]: 30.9 µM
- CC50 ([7]; CNS Cancer): 11.2 µM
- CC50 [8, 24]: 18.2 µM
- LC50 (concentration killing 50% of cells) ([9]; Melanoma, MALME-3M): 0.562 µM
- CC50 ([10]; Melanoma): 0.0525 µM
- CC50 ([11]; Ovarian Cancer): > 100 µM
- CC50 ([12]; Ovarian Cancer): > 100 µM
- LC50 (50% lethal concentration) ([13]; Renal Cancer): 18.2 µM
- CC50 ([14]; Renal Cancer): 26.3 µM
- LC50 ([15]; Prostate Cancer): 30.2 µM
- LC50 ([16]; Prostate Cancer): 8.32 µM
- LC50 (50% lethal concentration) ([17]; Breast Cancer): 43.7 µM
- CC50 ([18]; Breast Cancer): > 100 µM
- selective anticancer activities ([19]; colon cancer, melanoma and breast cancer cell lines): selective anticancer activities against colon cancer, melanoma and breast cancer cell lines
- growth inhibiting activities compared with aclacinomycin A [19]: higher growth inhibiting activities than aclacinomycin A
- dissolves easily (solubility) [20]: dissolves easily in methanol or chloroform

Structure (SMILES): CC[C@@]1(O)C[C@H](O[C@H]2C[C@H](N(C)C)[C@H](O[C@H]3C[C@@H]4OC5CC(=O)C(C)OC5O[C@@H]4[C@H](C)O3)[C@H](C)O2)c2c(O)c3c(c(O)c2[C@H]1C(=O)OC)C(=O)c1cccc(O)c1C3=O (stereo partly drawn) [11-hydroxy aclacinomycin B]
- dissolves easily (solubility) [20]: dissolves easily in MeOH and CHC13

Structure (SMILES): CC[C@@]1(O)C[C@H](O[C@H]2C[C@H](N(C)C)[C@H](O[C@H]3C[C@H](O)[C@H](O[C@@H]4O[C@@H](C)C(=O)C=C4N)[C@H](C)O3)[C@H](C)O2)c2c(O)c3c(c(O)c2[C@H]1C(=O)OC)C(=O)c1cccc(O)c1C3=O [11-Hydroxy aclacinomycin X, 11-hydroxy aclacinomycin X]
- LC50 (50% lethal concentration) [1]: 0.234 µM
- CC50 [2, 21]: 7.59 µM
- LC50 [3, 22]: 21.4 µM
- CC50 ([4]; Non-Small Cell Lung Cancer): 0.977 µM
- CC50 [6, 23]: 47.9 µM
- CC50 ([7]; CNS Cancer): > 100 µM
- CC50 [8, 24]: > 100 µM
- LC50 (concentration killing 50% of cells) ([9]; Melanoma, MALME-3M): 0.0537 µM
- CC50 ([10]; Melanoma): < 0.01 µM
- CC50 ([11]; Ovarian Cancer): > 100 µM
- LC50 (50% lethal concentration) ([13]; Renal Cancer): 4.57 µM
- CC50 ([14]; Renal Cancer): 15.5 µM
- LC50 ([15]; Prostate Cancer): 41.7 µM
- LC50 ([16]; Prostate Cancer): 6.76 µM
- LC50 (50% lethal concentration) ([17]; Breast Cancer): 30.9 µM
- CC50 ([18]; Breast Cancer): > 100 µM
- anticancer activities compared with aclacinomycin X ([19]; leukemia, melanoma and breast cancer cell lines): higher than aclacinomycin X
- growth inhibiting activities compared with aclacinomycin A [19]: higher growth inhibiting activities than aclacinomycin A
- dissolves easily (solubility) [20]: dissolves easily in MeOH or CHCl3

Structure (SMILES): CC[C@@]1(O)C[C@H](O[C@H]2C[C@H](N(C)C)[C@H](O)[C@H](C)O2)c2c(O)c3c(c(O)c2[C@H]1C(=O)OC)C(=O)c1cccc(O)c1C3=O [11-Hydroxy aclacinomycin T, 11-hydroxy aclacinomycin T]
- dissolves easily (solubility) [20]: dissolves easily in MeOH or CHC13

Structure (SMILES): CC[C@@]1(O)C[C@H](O[C@H]2C[C@H](N(C)C)[C@H](O[C@H]3C[C@H](O)[C@H](O[C@H]4CCC(=O)[C@H](C)O4)[C@H](C)O3)[C@H](C)O2)c2c(O)c3c(c(O)c2[C@H]1C(=O)OC)C(=O)c1cccc(O)c1C3=O [11-Hydroxy aclacinomycin A, 11-hydroxy aclacinomycin A]
- CC50 ([1]; HL-60, read-out: Log10 LC50 (converted)): < 0.01 µM
- CC50 ([2]; K562, read-out: Log10 LC50 (converted)): 1.78 µM
- LC50 ([3]; A549, read-out: Log10 LC50 (converted)): 24.5 µM
- CC50 [4]: 0.257 µM
- CC50 ([5]; read-out: Log10 LC50 (converted)): < 0.01 µM
- CC50 ([6]; HT-29, read-out: Log10 LC50 (converted)): 12.9 µM
- CC50 [7]: 79.4 µM
- CC50 ([8]; U-251, read-out: Log10 LC50 (converted)): 56.2 µM
- LC50 (concentration killing 50% of cells) ([9]; Malme-3M): 0.0676 µM
- CC50 [10]: < 0.01 µM
- CC50 [11]: 72.4 µM
- CC50 [12]: 38.9 µM
- LC50 (50% lethal concentration) [13]: 8.32 µM
- CC50 [14]: 19.1 µM
- LC50 [15]: 24.5 µM
- LC50 [16]: 14.5 µM
- LC50 (50% lethal concentration) [17]: 25.1 µM
- CC50 [18]: 100 µM
- anticancer activity ([19]; leukemia, colon cancer and melanoma cell lines): high anticancer activity
- growth inhibiting activities compared with aclacinomycin A [19]: higher growth inhibiting activities than aclacinomycin A
- dissolves easily (solubility) [20]: dissolves easily in MeOH or CHCL3

Source: US5843735A, “Aklavinone C-11 hydroxylase, gene coding for same, expression vector therefor, and process for preparing hybrid antibiotics by using said vector” (priority 1995, dated 1998)
